Assay results as given in article PMC9026082, “Madecassic Acid—A New Scaffold for Highly Cytotoxic Agents” (International Journal of Molecular Sciences, 2022).
Where a name gives a salt, the structure may show the parent alone.

What was measured:
A375 (melanoma) = experiment: SRB cytotoxicity assay, A375; type: cell-based, human; conditions: 72 h of treatment, cut-off 30 μM
Source text: (§1) To assess their cytotoxicity parent, triterpenoic acids 1–3, their acetates 4–6, the amides 7–18, as well as the respective rhodamine B conjugates 19–24 were subjected to SRB assays employing several human tumor cell lines (A375, HT29, MCF-7, A2780, and HeLa) as well as non-malignant fibroblasts (NIH 3T3).
(§2) A detailed description of materials and methods can be found in the Supplementary Materials File. For biological screening, the cell lines were obtained from ATCC: A375 (CRL-1619), HT29 (HTB-38), MCF7 (HTP-22), A2780 (HTP-77), HeLa (CCL-2), and NIH 3T3 (CRL-1573) ^13C NMR spectra (Supplementary Materials) were recorded as APT spectra showing CH and CH3 groups as positive signals and CH2 groups and quaternary carbons as negative signals. […]
(§3) 2. Cytotoxicity assay (SRB assay)
(§4) The cell lines were obtained from Department of oncology (Martin-Luther-University Halle Wittenberg). Cultures were maintained as monolayers in RPMI 1640 medium with L-glutamine (Capricorn Scientific GmbH, Ebsdorfergrund, Germany) supplemented with 10% heat inactivated fetal bovine serum (Sigma -Aldrich Chemie GmbH, Steinheim, Germany) and penicillin/streptomycin (1%, Capricorn Scientific GmbH, Ebsdorfergrund, Germany) at 37 °C in a humidified atmosphere with 5% CO 2.
(§5) The cytotoxicity of the compounds was eva luated using the sulforhodamine -B (Kiton-Red S, ABCR) micro culture colorimetric assay using […] in 96 -well plates with the seeding of the cells on day 0 applying appropriate cell densities to prevent confluence of the cells during the period of the experiment. On day 1, the cells were treated with six di fferent concentrations (1, 3, 7, 12, 20 and 30 μM); thereby, the final concentration of DMSO was always < 0.5%, generally regarded as non-toxic to the cells. On day 4, the supernatant medium was discarded; the cells were fixed with 10 % trichloroacetic acid. After another day at 4 °C, the cells were washed in a strip washer and dyed with the SRB solution (100 μL, 0.4% in 1% acetic acid) for about 20 min to be followed by washing of the plates (four times, 1% acetic acid) and air -drying […]
(§6) overnight. Furthermore, tris base solution (200 μL, 10 mM) was added to each well and absorbance was measured at λ = 570 nm employing a reader (96 wells, Tecan Spectra, Crailsheim, Germany). The EC50 values were averaged from three independent experiments performed each in triplicate calculated from semi logarithmic dose response curves applying a non-linear four-parameter Hills-slope equation (GraphPad Prism5; variables top and bottom were set to 100 and 0, respectively).

[1] = test system: HT29 (colorectal carcinoma); experiment: SRB cytotoxicity assay, HT29; type: cell-based, human; conditions: Homo sapiens, HT-29, 72 h of treatment, cut-off 30 μM
Source text: as §1, §2, §3, §4, §5, §6

[2] = test system: MCF7 (breast adenocarcinoma); experiment: SRB cytotoxicity assay, MCF7; type: cell-based, human; conditions: Homo sapiens, MCF7, 72 h of treatment, cut-off 30 μM
Source text: as §1, §2, §3, §4, §5, §6

[3] = test system: A2780 (ovarian carcinoma); experiment: SRB cytotoxicity assay, A2780; type: cell-based, human; conditions: Homo sapiens, A2780; SRB assay, 72 h of treatment; cut-off 30 μM
Source text: as §1, §2, §3, §4, §5, §6

[4] = test system: NIH 3T3 (non-malignant fibroblasts); experiment: SRB cytotoxicity assay, NIH 3T3; type: cell-based; conditions: Mus musculus, NIH3T3, 72 h of treatment, cut-off 30 μM
Source text: as §1, §2, §3, §4, §5, §6

[5] = test system: several human tumor cell lines (A375, HT29, MCF-7, A2780, and HeLa); experiment: SRB assays, cell line not given; type: cell-based
Source text: as §1, with “3T3). […]” for “3T3).”
as §3, §4, §5, §6

| melting point [°C] | SMILES | EC50 (A375 (melanoma); Homo sapiens, A-375, 72 h) [nM] | EC50 [1] [nM] | EC50 [2] [nM] | EC50 [3] [nM] | EC50 [4] [nM] | also measured |
| --- | --- | --- | --- | --- | --- | --- | --- |
| 146.5 to 150.5 | CC(=O)OC[C@@]1(C)[C@@H]2[C@H](O)C[C@]3(C)[C@H](CC=C4[C@@H]5[C@@H](C)[C@H](C)CC[C@]5(C(=O)N5CCCNCC5)CC[C@]43C)[C@@]2(C)C[C@@H](OC(C)=O)[C@@H]1OC(C)=O [Compound 18, (2α,3β,4α,6β) 2,3,23-Tris(acetyloxy)-N-(homopiperazinyl)-6-hydroxyurs-12-en-28-amide] |  |  |  |  |  |  |
| 150 to 154 | CC(=O)O[C@H]1CC[C@]2(C)[C@H]3CC=C4[C@@H]5CC(C)(C)CC[C@]5(C(=O)N5CCNCC5)CC[C@@]4(C)[C@]3(C)CC[C@H]2[C@]1(C)C=O [Compound 9, (3β,4α) 3-Acetyloxy-N-(piperazinyl)-23-oxo-olean-12-en-28-amide] |  |  |  |  |  |  |
| 133 to 138 | CC(=O)OC[C@@]1(C)[C@@H]2[C@H](O)C[C@]3(C)[C@H](CC=C4[C@@H]5[C@@H](C)[C@H](C)CC[C@]5(C(=O)N5CCNCC5)CC[C@]43C)[C@@]2(C)C[C@@H](OC(C)=O)[C@@H]1OC(C)=O [Compound 17, (2α,3β,4α,6β) 2,3,23-Tris(acetyloxy)-N-(piperazinyl)-6-hydroxyurs-12-en-28-amide] |  |  |  |  |  |  |
|  | CCN(CC)c1ccc2c(-c3ccccc3C(=O)N3CCCN(C(=O)[C@]45CCC(C)(C)C[C@H]4C4=CC[C@@H]6[C@@]7(C)CC[C@H](OC(C)=O)[C@@](C)(COC(C)=O)[C@@H]7CC[C@@]6(C)[C@]4(C)CC5)CC3)c3ccc(=[N+](CC)CC)cc-3oc2c1 [Compound 22] | 31 ± 7 | 83 ± 20 | 86 ± 10 | 18 ± 1 | 441 ± 120 |  |
| 150 to 152 | CC(=O)O[C@H]1CC[C@]2(C)[C@H]3CC=C4[C@@H]5CC(C)(C)CC[C@]5(C(=O)Nc5ccccc5)CC[C@@]4(C)[C@]3(C)CC[C@H]2[C@]1(C)C=O [Compound 8, (3β,4α) 3-Acetyloxy-N-(phenyl)-23-oxo-olean-12-en-28-amide] | 7900 ± 3300 | > 30000 | > 30000 | 19900 ± 1400 | > 30000 |  |
| 210 to 214 | CC(=O)OC[C@@]1(C)[C@@H]2CC[C@]3(C)[C@H](CC=C4[C@@H]5CC(C)(C)CC[C@]5(C(=O)Nc5ccccc5)CC[C@]43C)[C@@]2(C)CC[C@@H]1OC(C)=O [Compound 12, (3β,4α) 3,23-Bis(acetyloxy)-N-(phenyl)-olean-12-en-28-amide] | 660 | 1900 ± 600 | 1900 ± 100 | 800 ± 200 | > 30000 | EC50 (A375 (melanoma)): 600 ± 200 nM |
|  | CCN(CC)c1ccc2c(-c3ccccc3C(=O)N3CCN(C(=O)[C@]45CC[C@@H](C)[C@H](C)[C@H]4C4=CC[C@@H]6[C@@]7(C)C[C@@H](OC(C)=O)[C@H](OC(C)=O)[C@@](C)(COC(C)=O)[C@@H]7[C@H](O)C[C@@]6(C)[C@]4(C)CC5)CC3)c3ccc(=[N+](CC)CC)cc-3oc2c1 [Compound 23, N-{6-Diethylamino-9-[2-({4[ (2α,3β,4α,6β)-2,3,23-tris(acetyloxy)-6-hydroxy-28-oxours-12-en-28-yl)-1-piperazinyl]carbonyl]phenyl]-3H-xanthen-3-ylidene)-N-ethylethanaminium Chloride] | 55 ± 10 | 108 ± 20 | 54 ± 10 | 15 ± 1 | 277 ± 30 | EC50 ([5]; Homo sapiens, SRB assays, lowest value of the series, cell line not stated, read-out: EC50 values as low as (analogs of madecassic acid)): ≥ 15 nM |
|  | COc1cccc2c1C(=O)c1c(O)c3c(c(O)c1C2=O)C[C@@](O)(C(=O)CO)C[C@@H]3O[C@H]1C[C@H](N)[C@H](O)[C@H](C)O1 [DX, Doxorubicin, reference compound] |  | 900 ± 200 | 1100 ± 300 | 20 ± 10 | 1700 ± 300 |  |
| 210 to 214 | CC(=O)OC[C@@]1(C)[C@@H]2CC[C@]3(C)[C@H](CC=C4[C@@H]5CC(C)(C)CC[C@]5(C(=O)NCc5ccccc5)CC[C@]43C)[C@@]2(C)CC[C@@H]1OC(C)=O [Compound 11, (3β,4α) 3,23-Bis(acetyloxy)-N-(benzyl)-olean-12-en-28-amide] | 1100 ± 600 | 3800 ± 700 | 3400 ± 400 | 1300 ± 300 | > 30000 |  |
|  | CCN(CC)c1ccc2c(-c3ccccc3C(=O)O)c3ccc(=[N+](CC)CC)cc-3oc2c1 [rhodamine B, reference compound] |  |  |  |  |  | cytotoxicity ([5]; SRB assay, cut-off 30 μM): not cytotoxic |
| 176 to 180 | CC(=O)OC[C@@]1(C)[C@@H]2CC[C@]3(C)[C@H](CC=C4[C@@H]5CC(C)(C)CC[C@]5(C(=O)N5CCCNCC5)CC[C@]43C)[C@@]2(C)CC[C@@H]1OC(C)=O [Compound 14, (3β,4α)3,23-Bis(acetyloxy)-N-(homopiperazinyl)-olean-12-en-28-amide] |  |  |  |  |  |  |
| 176 to 179 | CC(=O)O[C@H]1CC[C@]2(C)[C@H]3CC=C4[C@@H]5CC(C)(C)CC[C@]5(C(=O)N5CCCNCC5)CC[C@@]4(C)[C@]3(C)CC[C@H]2[C@]1(C)C=O [Compound 10, (3β,4α) 3-Acetyloxy-N-(homopiperazinyl)-23-oxo-olean-12-en-28-amide] |  |  |  |  |  |  |
| 243 to 248 | CCN(CC)c1ccc2c(-c3ccccc3C(=O)N3CCCN(C(=O)[C@]45CCC(C)(C)C[C@H]4C4=CC[C@@H]6[C@@]7(C)CC[C@H](OC(C)=O)[C@@](C)(COC(C)=O)[C@@H]7CC[C@@]6(C)[C@]4(C)CC5)CC3)c3ccc(=[N+](CC)CC)cc-3oc2c1 (as salt: chloride) [Compound 22] |  |  |  |  |  |  |
| 183 to 187 | CC(=O)OC[C@@]1(C)[C@@H]2CC[C@]3(C)[C@H](CC=C4[C@@H]5CC(C)(C)CC[C@]5(C(=O)N5CCNCC5)CC[C@]43C)[C@@]2(C)CC[C@@H]1OC(C)=O [Compound 13, (3β,4α)3,23-Bis(acetyloxy)-N-(piperazinyl)-olean-12-en-28-amide] |  |  |  |  |  |  |
| 119 to 121 | CC(=O)O[C@H]1CC[C@]2(C)[C@H]3CC=C4[C@@H]5CC(C)(C)CC[C@]5(C(=O)NCc5ccccc5)CC[C@@]4(C)[C@]3(C)CC[C@H]2[C@]1(C)C=O [Compound 7, (3β,4α) 3-Acetyloxy-N-(benzyl)-23-oxo-olean-12-en-28-amide] | 3300 ± 300 | 10700 ± 1800 | 8800 ± 1600 | 4400 ± 300 | 18500 ± 4600 |  |
| 228 to 233 | CCN(CC)c1ccc2c(-c3ccccc3C(=O)N3CCN(C(=O)[C@]45CC[C@@H](C)[C@H](C)[C@H]4C4=CC[C@@H]6[C@@]7(C)C[C@@H](OC(C)=O)[C@H](OC(C)=O)[C@@](C)(COC(C)=O)[C@@H]7[C@H](O)C[C@@]6(C)[C@]4(C)CC5)CC3)c3ccc(=[N+](CC)CC)cc-3oc2c1 (as salt: chloride) [Compound 23, N-{6-Diethylamino-9-[2-({4[ (2α,3β,4α,6β)-2,3,23-tris(acetyloxy)-6-hydroxy-28-oxours-12-en-28-yl)-1-piperazinyl]carbonyl]phenyl]-3H-xanthen-3-ylidene)-N-ethylethanaminium Chloride] |  |  |  |  |  |  |
| 269 to 273 | CCN(CC)c1ccc2c(-c3ccccc3C(=O)N3CCCN(C(=O)[C@]45CC[C@@H](C)[C@H](C)[C@H]4C4=CC[C@@H]6[C@@]7(C)C[C@@H](OC(C)=O)[C@H](OC(C)=O)[C@@](C)(COC(C)=O)[C@@H]7[C@H](O)C[C@@]6(C)[C@]4(C)CC5)CC3)c3ccc(=[N+](CC)CC)cc-3oc2c1 (as salt: chloride) [Compound 24, N-{6-Diethylamino-9-[2-({4[ (2α,3β,4α,6β)-2,3,23-tris(acetyloxy)-6-hydroxy-28-oxours-12-en-28-yl)-1,4-diazepan-1-yl}carbonyl]phenyl]-3H-xanthen-3-ylidene)-N-ethylethanaminium Chloride] |  |  |  |  |  |  |
